Patent EP4644375A1, “SUBSTITUTED HYDROQUINOLINES FOR THE TREATMENT OF GLIOBLASTOMA MULTIFORME” (Molius Saglik Teknolojileri Anonim Sirketi, priority 2024, dated 2025)

Legend:
U87-MG human glioma cell = assay: Cell proliferation analysis (MTT); format: cell-based; details: for activity at 10 µM / inhibition at 10 µM: Homo sapiens, U-87 MG, 48 h; for activity at 10 µM / inhibition at 10 µM / Cell Proliferation (%): two days, MTT, 10 µM; for top 5 target compounds whose treatment resulted in the lowest proliferation: ranking
[1] = tested on: U138-MG human glioma cell; assay: Cell proliferation analysis (MTT); format: cell-based; details: 10 µM, two days, MTT; for activity at 10 µM / inhibition at 10 µM: Homo sapiens, 48 h

Structure (SMILES)	activity at 10 µM (U87-MG human glioma cell) [%]	inhibition at 10 µM (U87-MG human glioma cell) [%]	top 5 target compounds whose treatment resulted in the lowest proliferation (U87-MG human glioma cell)	activity at 10 µM [1] [%]	inhibition at 10 µM [1] [%]	Cell Proliferation (%) (U87-MG human glioma cell)	Cell Proliferation (%) [1] [%]
C=CCN1C(=O)CCc2cc(OCCCCc3nnnn3C3CCCCC3)ccc21 [TR-G103, 1-allyl-6-(4-(1-cyclohexyl-1H-tetrazol-5-yl)butoxy)-3,4-dihydroquinolin-2(1H)-one]	45	55	top 5	63	38		
Cc1ccc(CN2C(=O)CCc3cc(OCCCCc4nnnn4C4CCCCC4)ccc32)cc1 [TR-G104, 6-(4-(1-cyclohexyl-1H-tetrazol-5-yl)butoxy)-1-(4-methylbenzyl)-3,4-dihydroquinolin-2(1H)-one]	49	51		83	17		
CCCN1C(=O)CCc2cc(OCCCCc3nnnn3C3CCCCC3)ccc21 [TR-G105, 6-(4-(1-cyclohexyl-1H-tetrazol-5-yl)butoxy)-1-propyl-3,4-dihydroquinolin-2(1H)-one]	48	52		73	28		
O=C1CCc2cc(OCCCCc3nnnn3C3CCCCC3)ccc2N1CCCc1ccccc1 [TR-G106, 6-(4-(1-cyclohexyl-1H-tetrazol-5-yl)butoxy)-1-(3-phenylpropyl)-3,4-dihydroquinolin-2(1H)-one]	73	27		66	35		
C=Cc1ccc(CN2C(=O)CCc3cc(OCCCCc4nnnn4C4CCCCC4)ccc32)cc1 [TR-G107, 6-(4-(1-cyclohexyl-1H-tetrazol-5-yl)butoxy)-1-(4-vinylbenzyl)-3,4-dihydroquinolin-2(1H)-one]	47	53	top 5	103	-3		
O=C1CCc2cc(OCCCCc3nnnn3C3CCCCC3)ccc2N1Cc1ccccc1 [TR-G110, 1-benzyl-6-(4-(1-cyclohexyl-1H-tetrazol-5-yl)butoxy)-3,4-dihydroquinolin-2(1H)-one]	58	42		69	31		
O=C1CCc2cc(OCCCCc3nnnn3C3CCCCC3)ccc2N1Cc1ccc(Cl)cc1 [TR-G111, 1-(4-chlorobenzyl)-6-(4-(1-cyclohexyl-1H-tetrazol-5-yl)butoxy)-3,4-dihydroquinolin-2(1H)-one]		32			9	68	91
O=C1CCc2cc(OCCCCc3nnnn3C3CCCCC3)ccc2N1Cc1ccc(F)cc1 [TR-G112, 6-(4-(1-cyclohexyl-1H-tetrazol-5-yl)butoxy)-1-(4-fluorobenzyl)-3,4-dihydroquinolin-2(1H)-one]	60	41		43	58		
C=CCOC(=O)N1C(=O)CCc2cc(OCCCCc3nnnn3C3CCCCC3)ccc21 [TR-G114, Allyl 6-(4-(1-cyclohexyl-1H-tetrazol-5-yl)butoxy)-2-oxo-3,4-dihydroquinoline-1(2H)-carboxylate]	86	14		85	15		
O=C1CCc2cc(OCc3cc(-c4c(F)cccc4Cl)no3)ccc2N1 [TR-G116, 6-((3-(2-chloro-6-fluorophenyl)isoxazol-5-yl)methoxy)-3,4-dihydroquinolin-2(1H)-one]		7			41	93	59
O=C1CCc2cc(OCc3cn(CCCN4C(=O)c5ccccc5C4=O)nn3)ccc2N1 [TR-G117, 2-(3-(4-(((2-oxo-1,2,3,4-tetrahydroquinolin-6-yl)oxy)methyl)-1H-1,2,3-triazol-1-yl)propyl)isoindoline-1,3-dione]	96	4		106	-6		
O=C(COc1ccc2c(c1)CCC(=O)N2)Nc1ccc(N2CCOCC2)cc1 [TR-G120, N-(4-morpholinophenyl)-2-((2-oxo-1,2,3,4-tetrahydroquinolin-6-yl)oxy)acetamide]	68	33		67	34		
O=C(COc1ccc2c(c1)CCC(=O)N2)Nc1ccc([N+](=O)[O-])cn1 [TR-G122, N-(5-nitropyridin-2-yl)-2-((2-oxo-1,2,3,4-tetrahydroquinolin-6-yl)oxy)acetamide]	82	18		90	11		
O=C(COc1ccc2c(c1)CCC(=O)N2)Nc1ccc(Br)cc1 [TR-G123]	92	8		109	-9		
CCCCCCn1cc(COc2ccc3c(c2)CCC(=O)N3)nn1 [TR-G125, 6-((1-hexyl-1H-1,2,3-triazol-4-yl)methoxy)-3,4-dihydroquinolin-2(1H)-one]	64	36		82	18		
NC(=O)COCCOc1ccc2c(c1)CCC(=O)N2 [TR-G126, 2-(2-((2-oxo-1,2,3,4-tetrahydroquinolin-6-yl)oxy)ethoxy)acetamide]	70	30		97	3		

Structure (SMILES)	activity at 10 µM (U87-MG human glioma cell) [%]	inhibition at 10 µM (U87-MG human glioma cell) [%]	top 5 target compounds whose treatment resulted in the lowest proliferation (U87-MG human glioma cell)	activity at 10 µM [1] [%]	inhibition at 10 µM [1] [%]	Cell Proliferation (%) (U87-MG human glioma cell)	Cell Proliferation (%) [1] [%]
CC(C)N(C(=O)Oc1ccc2c(c1)CCC(=O)N2)C(C)C [TR-G129, 2-oxo-1,2,3,4-tetrahydroquinolin-6-yl diisopropylcarbamate]	81	19		74	26		
O=C1CCc2cc(OC(=O)Nc3ccccc3)ccc2N1 [TR-G131, 2-oxo-1,2,3,4-tetrahydroquinolin-6-yl phenylcarbamate]	79	21		54	46		
COc1ccccc1NC(=O)Oc1ccc2c(c1)CCC(=O)N2 [TR-G132, 2-oxo-1,2,3,4-tetrahydroquinolin-6-yl (2-methoxyphenyl)carbamate]	78	22		73	27		
O=C1CCc2cc(OC(=O)Nc3ccc([N+](=O)[O-])cc3)ccc2N1 [TR-G133, 2-oxo-1,2,3,4-tetrahydroquinolin-6-yl (4-nitrophenyl)carbamate]	93	7		77	23		
Cc1ccccc1NC(=O)Oc1ccc2c(c1)CCC(=O)N2 [TR-G134, 2-oxo-1,2,3,4-tetrahydroquinolin-6-yl-o-tolylcarbamate]		30			27	70	73
O=C1CCc2cc(OC(=O)Nc3cccc4ccccc34)ccc2N1 [TR-G135, 2-oxo-1,2,3,4-tetrahydroquinolin-6-yl naphthalene-1-ylcarbamate]	71	29		80	20		
O=C1CCc2cc(OC(=O)Nc3ccccc3Br)ccc2N1 [TR-G136, 2-oxo-1,2,3,4-tetrahydroquinolin-6-yl (2-bromophenyl)carbamate]		11			40	89	60
O=C1CCc2cc(OC(=O)Nc3ccccc3C(F)(F)F)ccc2N1 [TR-G137, 2-oxo-1,2,3,4-tetrahydroquinolin-6-yl (2-(trifluoromethyl)phenyl)carbamate]	73	27		60	40		
O=C(COc1ccc2c(c1)CCC(=O)N2)N/N=C/c1cccc(Oc2ccc(Cl)cc2)c1 [TR-G138, (E)-N'-(3-(4-chlorophenoxy)benzylidene)-2-((2-oxo-1,2,3,4-tetrahydroquinolin-6-yl)oxy)acetohydrazide]		50			35		
O=C1CCc2cc(OC(=O)c3cccc(F)c3)ccc2N1 [TR-G139, 2-oxo-1,2,3,4-tetrahydroquinolin-6-yl 3-flurobenzoate]	71	29		83	17		
O=C1CCc2cc(OC(=O)Nc3ccc(F)cc3)ccc2N1 [TR-G140, 2-oxo-1,2,3,4-tetrahydroquinolin-6-yl (4-fluorophenyl)carbamate]	80	20		91	9		
O=C(COc1ccc2c(c1)CCC(=O)N2)N/N=C/c1cccc2ccccc12 [TR-G141, (E)-N'-(naphthalen-1-ylmethylene)-2-((2-oxo-1,2,3,4-tetrahydroquinolin-6-yl)oxy)acetohydrazide]	53	47		65	35		
O=C1CCc2cc(OCc3cc(-c4ccc(F)cc4)no3)ccc2N1 [TR-G142, 6-((3-(4-fluorophenyl)isoxazol-5-yl)methoxy)-3,4-dihydroquinolin-2(1H)-one]	55	46		70	30		
C=CCCCOc1ccc2c(c1)CCC(=O)N2 [TR-G144, 6-(pent-4-en-i-yloxy)-3,4-dihydroquinolin-2(1H)-one]	61	39		70	30		
O=C(COc1ccc2c(c1)CCC(=O)N2)N/N=C/c1ccc(-c2ccccc2)cc1 [TR-G145, (E)-N'-([1,1'-biphenyl}-4-ylmethylene)-2-((2-oxo-1,2,3,4-tetrahydroquinolin-6-yl)oxy)acetohydrazide]	49	51		59	41		
